In brackets after ≈: the same amount, converted by molar mass. Read-outs that look alike come from different tables or passages of the source.
Experiments:
[1] = test system: Ab ATCC 19606 (strain I); assay: MIC determination (double dilution, Mueller-Hinton broth); format: cell-based, Acinetobacter baumannii; conditions: Acinetobacter baumannii, ATCC19606
Method: All bacterial strains listed above were stored at −80° C. All strains were streaked on Mueller-Hinton (MH) plates and allowed to grow at 37° C. overnight. […] The resulting culture was diluted 1:1000 and added to the prepared serially doubly diluted compound solutions in 96-well plates. For M. smegmatis, a 1:100 dilution of the bacteria was done in MH. All MIC values were determined using 96-well plates with low evaporation seals at least in duplicate. For each row, one well was reserved for sterile control (which consisted of 200 μL of MH medium) and another well was reserved for growth control (which consisted of 100 μL of MH medium seeded with 100 μL of bacterial culture).
(§1) Minimum inhibitory concentrations (MIC) of all compounds from the series were measured in liquid cultures of different Ab strains by a double-dilution method in Mueller-Hinton broth. Initially, the activity of all 46 compounds against Ab ATCC 19606 (a control strain) and Ab ATCC BAA1605 (a multidrug-resistant strain) (Table 1; data shown for 27 representative compounds) was measured.

[2] = test system: Ab ATCC BAA1605 (strain J, multidrug-resistant); assay: MIC determination; format: cell-based; conditions: Acinetobacter baumannii
Method: (§2) All bacterial strains listed above were stored at −80° C. All strains were streaked on Mueller-Hinton (MH) plates and allowed to grow at 37° C. overnight. Enough colonies were scraped from the plate and suspended in MH broth with vortexing to reach an attenuance at 600 nm (OD600) of ˜0.5. The resulting culture was diluted 1:1000 and added to the prepared serially doubly diluted compound solutions in 96-well plates. For M. smegmatis, a 1:100 dilution of the bacteria was done in MH. All MIC values were determined using 96-well plates with low evaporation seals at least in duplicate. For each row, one well was reserved for sterile control (which consisted of 200 μL of MH medium) and another well was reserved for growth control (which consisted of 100 μL of MH medium seeded with 100 μL of bacterial culture).
as §1

[3] = test system: K. pneumoniae ATCC 27736; assay: MIC determination; format: cell-based; conditions: Klebsiella pneumoniae, ATCC27736; Table 5; Mueller-Hinton medium; F = K. pneumoniae ATCC 27736; read-out: MIC strain F
[4] = test system: P. aeruginosa ATCC 27853; assay: MIC determination; format: cell-based; conditions: Pseudomonas aeruginosa, ATCC27853; Table 5; Mueller-Hinton medium; G = P. aeruginosa ATCC 27853; read-out: MIC strain G
[5] = test system: B. anthracis Sterne F32; assay: microbe, parasite or virus in culture; format: cell-based; conditions: Bacillus anthracis, STERNEF32, read-out: MIC strain A
[6] = test system: S. enterica ATCC 14028; assay: MIC determination; format: cell-based; conditions: Salmonella enterica, ATCC14028; Table 5; Mueller-Hinton medium; H = S. enterica ATCC 14028; read-out: MIC strain H
[7] = test system: E. cloacae ATCC 13047; assay: MIC determination; format: cell-based; conditions: Enterobacter cloacae, ATCC13047; Table 5; Mueller-Hinton medium; E = E. cloacae ATCC 13047; read-out: MIC strain E
[8] = test system: S. epidermidis ATCC 12228; assay: MIC determination; format: cell-based; conditions: Staphylococcus epidermidis, ATCC12228; Table 5; Mueller-Hinton medium; C = S. epidermidis ATCC 12228; read-out: MIC strain C
[9] = test system: S. aureus ATCC 25923; assay: MIC determination; format: cell-based; conditions: Staphylococcus aureus, ATCC25923; Table 5; Mueller-Hinton medium; B = S. aureus ATCC 25923; read-out: MIC strain B
[10] = test system: E. coli MC1061; assay: MIC determination; format: cell-based; conditions: Escherichia coli; Table 5; Mueller-Hinton medium; D = E. coli MC1061; read-out: MIC strain D
[11] = test system: all 43 strains of A. baumannii (41 CDC strains and 2 ATCC strains); assay: MIC value statistics for all A. baumannii strains; format: cell-based, Acinetobacter baumannii; conditions: of 43 A. baumannii strains
Method: as §2, with “[…].” for “For M. smegmatis, a 1:100 dilution of the bacteria was done in MH. All MIC values were determined using 96-well plates with low evaporation seals at least in duplicate.”
Having established that the observed activity is selective to A. baumannii, all synthesized compounds were tested against a panel of antibiotic resistant A. baumannii from the Antimicrobial Resistant (AR) Isolate Bank from the CDC along with strains I and J (Table Si). […]. Based on this statistical analysis, the best compound is 5e followed closely by 3e.

[12] = Table 5, Mueller-Hinton medium, I = A. baumannii ATCC 19606, read-out: MIC strain I
[13] = Table 5, Mueller-Hinton medium, J = A. baumannii BAA1605, read-out: MIC strain J
[14] = Table 1, control strain, read-out: MIC Ab ATCC 19606
[15] = Table 1, multidrug-resistant strain, read-out: MIC Ab ATCC BAA 1605

Structure (SMILES) | MIC [1, 12] | MIC [2, 13] | MIC [3] | MIC [4] | MIC [5] | MIC [6] | MIC [7] | MIC [8] | MIC [9] | MIC [10] | number of compound/strain combinations with MIC value 0.25 μg/mL [11] | number of compound/strain combinations with MIC value 0.5 μg/mL [11] | number of compound/strain combinations with MIC value 1 μg/mL [11] | number of compound/strain combinations with MIC value ≤0.125 μg/mL [11] | MIC [1, 14] | MIC [2, 15] | number of compound/strain combinations with MIC value 2 μg/mL [11] | number of compound/strain combinations with MIC value 4 μg/mL [11] | number of compound/strain combinations with MIC value 8 μg/mL [11] | number of compound/strain combinations with MIC value >64 μg/mL [11]
O=C(NNc1ccc(Cl)cc1)c1cc2ccccc2[nH]1 [Compound 14e] | 0.5 µg/mL (≈ 1.75 µM) | 0.25 µg/mL (≈ 0.875 µM) | > 64 µg/mL | > 64 µg/mL | > 64 µg/mL | > 64 µg/mL | > 64 µg/mL | > 64 µg/mL | > 64 µg/mL | > 64 µg/mL | 18 | 20 | 2 | 3 |  |  |  |  |  | 
CCC(=O)NNc1ccc(Cl)cc1 [Compound 16e] | ≤ 0.125 µg/mL | ≤ 0.125 µg/mL | 16 µg/mL (≈ 80.5 µM) | > 64 µg/mL | > 64 µg/mL | 64 µg/mL (≈ 322 µM) | 16 µg/mL (≈ 80.5 µM) | > 64 µg/mL | > 64 µg/mL | 16 µg/mL (≈ 80.5 µM) | 17 | 10 | 1 | 15 | ≤ 0.25 µg/mL | ≤ 0.125 µg/mL |  |  |  | 
O=C(NNc1ccc(F)cc1)c1ccc(F)cn1 [Compound 3d] | 0.5 µg/mL (≈ 2.01 µM) | 0.25 µg/mL (≈ 1 µM) | 64 µg/mL (≈ 257 µM) | > 64 µg/mL | > 64 µg/mL | 64 µg/mL (≈ 257 µM) | 64 µg/mL (≈ 257 µM) | > 64 µg/mL | > 64 µg/mL | 64 µg/mL (≈ 257 µM) | 10 | 19 | 13 | 1 | 0.5 µg/mL (≈ 2.01 µM) | 0.25 µg/mL (≈ 1 µM) |  |  |  | 
COc1ccc(NNC(=O)c2ccc(F)cn2)cc1 [Compound 3f] | 1 µg/mL (≈ 3.83 µM) | 0.5 µg/mL (≈ 1.91 µM) | > 64 µg/mL | > 64 µg/mL | > 64 µg/mL | > 64 µg/mL | > 64 µg/mL | > 64 µg/mL | > 64 µg/mL | > 64 µg/mL | 1 | 2 | 9 |  | 1 µg/mL (≈ 3.83 µM) | 0.5 µg/mL (≈ 1.91 µM) | 19 | 11 | 1 | 
O=C(NNc1cccc(F)c1)c1ccc(F)cn1 [Compound 3a] | 0.5 µg/mL (≈ 2.01 µM) | 0.5 µg/mL (≈ 2.01 µM) | > 64 µg/mL | > 64 µg/mL | > 64 µg/mL | > 64 µg/mL | > 64 µg/mL | > 64 µg/mL | > 64 µg/mL | 64 µg/mL (≈ 257 µM) | 16 | 18 |  | 9 | 0.5 µg/mL (≈ 2.01 µM) | 0.5 µg/mL (≈ 2.01 µM) |  |  |  | 
CCOC(=O)CNNC(=O)c1ccc2ccccc2n1 [Compound 12g] | > 64 µg/mL | > 64 µg/mL | > 64 µg/mL | > 64 µg/mL | > 64 µg/mL | > 64 µg/mL | > 64 µg/mL | > 64 µg/mL | > 64 µg/mL | > 64 µg/mL |  |  |  |  |  |  |  |  |  | 43

Reference: patent US20260041683A1, “Compounds with Anti-Acinetobacter Baumannii Activity” (University of Kentucky Research Foundation, priority 2022, published 2026)
